Measured values: patent US10364226B2, “Pyridazinone compounds and uses thereof” (priority 2013, dated 2019)

Columns and labels:
[1] = tested on: Influenza strain A549 A/WSN/33 (H1N1); experiment: Influenza Antiviral Assay; assay type: cell-based, Influenza A virus; details: Influenza A virus, A549, 20 h, neuraminidase fluorescence readout, read-out: % Inhibition
EN PA = EN PA (Influenza A virus, UniProt P15659); experiment: EN PA FRET Inhibition Assay; assay type: biochemical; details: read-out: Potency

Row | Structure (SMILES) | EC50 [1] | IC50 (EN PA)
1 | O=C(O)c1nn(-c2cccc(C(F)(F)F)c2)cc(O)c1=O [Compound 1, 5-hydroxy-4-oxo-1-(3-(trifluoromethyl)phenyl)-1,4-dihydropyridazine-3-carboxylic acid] | > 100000 nM | 100 to 1000 nM
2 | CCN(CC)S(=O)(=O)c1ccc(OC)c(-n2cc(O)c(=O)c(C(=O)O)n2)c1 [Compound 2, 1-(5-(N,N-diethylsulfamoyl)-2-methoxyphenyl)-5-hydroxy-4-oxo-1,4-dihydropyridazine-3-carboxylic acid] | > 100000 nM | 100 to 1000 nM
3 | O=C(O)c1nn(-c2ccc(F)cc2)cc(O)c1=O [Compound 4] | > 100000 nM | 100 to 1000 nM
4 | O=C(O)c1nn(-c2cccc(Oc3ccccc3)c2)cc(O)c1=O [Compound 6] | > 100000 nM | 100 to 1000 nM
5 | O=C(O)c1nn(-c2ccccc2C(F)(F)F)cc(O)c1=O [Compound 7] | > 100000 nM | 100 to 1000 nM
6 | O=C(O)c1nn(-c2ccccc2Oc2ccccc2)cc(O)c1=O [Compound 9] | > 100000 nM | 100 to 1000 nM
7 | O=C(O)c1nn(-c2ccc3c(c2)CCC3)cc(O)c1=O [Compound 10] | > 100000 nM | 100 to 1000 nM
8 | O=C(O)c1nn(-c2ccccc2N2CCCCC2)cc(O)c1=O [Compound 11] | > 100000 nM | 100 to 1000 nM
9 | CS(=O)(=O)Nc1cccc(-n2cc(O)c(=O)c(C(=O)O)n2)c1 [Compound 17] | > 100000 nM | 100 to 1000 nM
10 | O=C(O)c1nn(-c2ccccc2-c2ccccc2)cc(O)c1=O [Compound 18] | > 100000 nM | 100 to 1000 nM
11 | CN(Cc1ccccc1-n1cc(O)c(=O)c(C(=O)O)n1)C1CCCCC1 [Compound 19] | > 100000 nM | 100 to 1000 nM
12 | O=C(O)c1nn(-c2cc(C(F)(F)F)cc(C(F)(F)F)c2)cc(O)c1=O [Compound 20] | > 100000 nM | 100 to 1000 nM
13 | O=C(O)c1nn(-c2ccccc2OC(F)(F)F)cc(O)c1=O [Compound 21] | > 100000 nM | < 100 nM
14 | O=C(O)c1nn(-c2ccccc2S(=O)(=O)c2ccccc2)cc(O)c1=O [Compound 24] | > 100000 nM | < 100 nM
15 | O=C(O)c1nn(-c2ccccc2-c2ccccc2-c2ccccc2)cc(O)c1=O [Compound 35] | < 20000 nM | < 100 nM
16 | O=C(O)c1nn(-c2ccccc2N2CCCC2Cc2ccccc2)cc(O)c1=O (stereo not shown) [Compound 203] | 20000 to 100000 nM | 100 to 1000 nM
17 | CC1(C)CCN(c2ccccc2-n2cc(O)c(=O)c(C(=O)O)n2)CC1 [Compound 206] | 20000 to 100000 nM | 100 to 1000 nM
18 | CC(C)C1CCN(c2ccccc2-n2cc(O)c(=O)c(C(=O)O)n2)CC1 [Compound 207] | 20000 to 100000 nM | 100 to 1000 nM
19 | CC1CCCN(c2ccccc2-n2cc(O)c(=O)c(C(=O)O)n2)C1 (stereo not shown) [Compound 210] | > 100000 nM | 100 to 1000 nM
20 | O=C(O)c1nn(-c2ccccc2N2CCCC(c3ccccc3)C2)cc(O)c1=O (stereo not shown) [Compound 211] | 20000 to 100000 nM | 100 to 1000 nM
21 | Cc1ccc(OC(C)C)c(-c2ccccc2-n2cc(O)c(=O)c(C(=O)O)n2)c1 [Compound 314] | > 100000 nM | 100 to 1000 nM
22 | O=C(O)c1nn(-c2ccccc2-c2ccccc2OC2CCCC2)cc(O)c1=O [Compound 319] | < 20000 nM | 100 to 1000 nM
23 | O=C(O)c1nn(-c2ccccc2-c2ccc3[nH]ccc3c2)cc(O)c1=O [Compound 320] | > 100000 nM | 100 to 1000 nM
24 | O=C(O)c1nn(CCc2ccccc2C(F)(F)F)cc(O)c1=O [Compound 400, 1-(2-(trifluoromethyl)phenethyl)-1,4-dihydro-5-hydroxv-4-oxopyridazine-3-carboxylic acid] | > 100000 nM | < 100 nM
25 | O=C(O)c1nn(CCc2ccccc2)cc(O)c1=O [Compound 401] | > 100000 nM | 100 to 1000 nM

Row | Structure (SMILES) | EC50 [1] | IC50 (EN PA)
26 | O=C(O)c1nn(CCCc2ccccc2)cc(O)c1=O [Compound 402] | > 100000 nM | 100 to 1000 nM
27 | O=C(O)c1nn(Cc2ccccc2-c2ccccc2)cc(O)c1=O [Compound 403] | > 100000 nM | < 100 nM
28 | CC(C)(C)OC(=O)n1cc(CCn2cc(O)c(=O)c(C(=O)O)n2)c2ccccc21 [Compound 404] | > 100000 nM | < 100 nM
29 | CCOC(=O)c1nn(CC2(c3cccc(C(F)(F)F)c3)CCCC2)cc(O)c1=O [Compound 405] | < 20000 nM | ≥ 1000 nM
30 | O=C(O)c1nn(CC2(c3cccc(C(F)(F)F)c3)CCCC2)cc(O)c1=O [Compound 406] | < 20000 nM | < 100 nM
31 | O=C(O)c1nn(CCc2c[nH]c3ccccc23)cc(O)c1=O [Compound 407] | > 100000 nM | 100 to 1000 nM
32 | CCOC(=O)c1nn(CCc2ccccc2C(F)(F)F)cc(O)c1=O [Compound 408] | 20000 to 100000 nM | ≥ 1000 nM
33 | O=C(O)c1nn(Cc2ccccc2)cc(O)c1=O [Compound 409] | > 100000 nM | 100 to 1000 nM
34 | O=C(O)c1nn(CC2(c3ccccc3)CCCC2)cc(O)c1=O [Compound 410] | < 20000 nM | < 100 nM
35 | CCOC(=O)c1nn(CC2(c3ccccc3)CCCC2)cc(O)c1=O [Compound 411] | < 20000 nM | 100 to 1000 nM
36 | O=C(O)c1nn(CCc2cccc(C(F)(F)F)c2)cc(O)c1=O [Compound 412] | > 100000 nM | < 100 nM
37 | Cc1ccc(C(C)(C)Cn2cc(O)c(=O)c(C(=O)O)n2)cc1 [Compound 416] | 20000 to 100000 nM | < 100 nM
38 | O=C(O)c1nn(CCC2CCCCC2)cc(O)c1=O [Compound 421] | > 100000 nM | 100 to 1000 nM
39 | O=C(O)c1nn(CC2(n3ccc4cccnc43)CCCC2)cc(O)c1=O [Compound 422] | < 20000 nM | < 100 nM
40 | O=C(O)c1nn(CCc2cccc3ccccc23)cc(O)c1=O [Compound 423] | > 100000 nM | 100 to 1000 nM
41 | O=C(O)c1nn(CC2(c3cccc(C(F)(F)F)c3)CC2)cc(O)c1=O [Compound 424] | 20000 to 100000 nM | 100 to 1000 nM
42 | CCC(NC(=O)c1nn(CC2(c3cccc(C(F)(F)F)c3)CCCC2)cc(O)c1=O)C(F)(F)F (stereo not shown) [Compound 500, 5-hydroxy-4-oxo-N-(1,1,1-trifluorobutan-2-yl)-1-((1-(3-(trifluoromethyl)phenyl)cyclopentyl)methyl)-1,4-dihydropyridazine-3-carboxamide] | < 20000 nM | 100 to 1000 nM
43 | CNC(=O)c1nn(-c2ccccc2-c2ccc(CC(C)C)cc2)cc(O)c1=O [Compound 501] | < 20000 nM | ≥ 1000 nM
44 | O=C(c1nn(CC2(c3cccc(C(F)(F)F)c3)CCCC2)cc(O)c1=O)N1CCC(F)(F)C1 [Compound 502] | < 20000 nM | ≥ 1000 nM
45 | CNC(=O)c1nn(CC2(c3cccc(-c4ccn[nH]4)c3)CCCC2)cc(O)c1=O [Compound 767] | < 20000 nM | –
46 | CNC(=O)c1nn(CC2(c3cccc(-c4cnn(C)c4)c3)CCCC2)cc(O)c1=O [Compound 769] | > 100000 nM | –
47 | CNC(=O)c1nn(CC2(c3ccc(-c4ccc(OC)nc4)cc3)CCCC2)cc(O)c1=O [Compound 770] | < 20000 nM | –
48 | CNC(=O)c1nn(CC2(c3ccc(-c4ccnn4C)cc3)CCCC2)cc(O)c1=O [Compound 779] | > 100000 nM | –
49 | CNC(=O)c1nn(CC2(c3ccc(-c4cc[nH]n4)cc3)CCCC2)cc(O)c1=O [Compound 780] | < 20000 nM | –
50 | CNC(=O)c1nn(CC2(c3ccc(-c4ccncc4)cc3)CCCC2)cc(O)c1=O [Compound 781] | < 20000 nM | –
